# Laboratory results reported in PubChem BioAssay (NCI).
#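 96-well plates; 48 h exposure; 5 concentrations. Endpoints by linear interpolation between flanking doses. Not reached: highest tested concentration assigned. GI50 = concentration required for 50% inhibition of growth. TGI: concentration producing complete growth inhibition.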
# Experiments:
# Assay in all cases: growth of human tumour cells (NCI), 48 h
# ACHN renal = tested on: ACHN renal
# A549 NSCLC = tested on: A549 NSCLC
# MDA-MB-231 breast = tested on: MDA-MB-231 breast
# PC-3 prostate = tested on: PC-3 prostate
# HCT-116 colon = tested on: HCT-116 colon
# LOX IMVI melanoma = tested on: LOX IMVI melanoma
# NCI-H460 lung = tested on: NCI-H460 lung
# DU-145 prostate = tested on: DU-145 prostate
# MCF7 breast = tested on: MCF7 breast
# COLO 205 colon = tested on: COLO 205 colon
# HOP-62 NSCLC = tested on: HOP-62 NSCLC
# T-47D breast = tested on: T-47D breast
# KM12 colon = tested on: KM12 colon
# HCT-15 colon = tested on: HCT-15 colon
# UACC-62 melanoma = tested on: UACC-62 melanoma
# HL-60(TB) leukemia = tested on: HL-60(TB) leukemia
# SNB-75 CNS = tested on: SNB-75 CNS
# SK-OV-3 ovarian = tested on: SK-OV-3 ovarian
# SF-539 CNS = tested on: SF-539 CNS
# HT29 colon = tested on: HT29 colon
# K-562 leukemia = tested on: K-562 leukemia
# SNB-19 CNS = tested on: SNB-19 CNS
# RXF 393 renal = tested on: RXF 393 renal
# NCI-H522 lung = tested on: NCI-H522 lung
# MALME-3M melanoma = tested on: MALME-3M melanoma
# SK-MEL-5 melanoma = tested on: SK-MEL-5 melanoma
# NCI-H23 lung = tested on: NCI-H23 lung
# EKVX NSCLC = tested on: EKVX NSCLC
# OVCAR-8 ovarian = tested on: OVCAR-8 ovarian
# MDA-MB-435 = tested on: MDA-MB-435
# SK-MEL-28 melanoma = tested on: SK-MEL-28 melanoma
# IGROV1 ovarian = tested on: IGROV1 ovarian
# A498 renal = tested on: A498 renal
# SN12C renal = tested on: SN12C renal
# RPMI-8226 leukemia = tested on: RPMI-8226 leukemia
# CCRF-CEM leukemia = tested on: CCRF-CEM leukemia
# TK-10 renal = tested on: TK-10 renal
# MOLT-4 leukemia = tested on: MOLT-4 leukemia
# OVCAR-4 ovarian = tested on: OVCAR-4 ovarian
# HCC-2998 colon = tested on: HCC-2998 colon
# M14 melanoma = tested on: M14 melanoma
# SK-MEL-2 melanoma = tested on: SK-MEL-2 melanoma
# NCI/ADR-RES ovarian = tested on: NCI/ADR-RES ovarian
# OVCAR-5 ovarian = tested on: OVCAR-5 ovarian
# SW-620 colon = tested on: SW-620 colon
# SF-295 CNS = tested on: SF-295 CNS
# SR leukemia = tested on: SR leukemia
# NCI-H226 lung = tested on: NCI-H226 lung
# CAKI-1 renal = tested on: CAKI-1 renal
# U251 CNS = tested on: U251 CNS
# 786-0 renal = tested on: 786-0 renal
# SF-268 CNS = tested on: SF-268 CNS
# UO-31 renal = tested on: UO-31 renal
# BT-549 breast = tested on: BT-549 breast
# HS 578T breast = tested on: HS 578T breast
# UACC-257 melanoma = tested on: UACC-257 melanoma
structure (smiles),measurement,setting,value
Oc1ccc(CSc2nnc(-c3cnccn3)n2-c2ccccc2)c2cccnc12,GI50,ACHN renal,641 nM
same,TGI,ACHN renal,> 40900 nM
same,GI50,A549 NSCLC,1180 nM
same,TGI,A549 NSCLC,> 100000 nM
same,GI50,MDA-MB-231 breast,1280 nM
same,TGI,MDA-MB-231 breast,> 86500 nM
same,GI50,PC-3 prostate,586 nM
same,TGI,PC-3 prostate,> 100000 nM
same,GI50,HCT-116 colon,370 nM
same,TGI,HCT-116 colon,> 100000 nM
same,GI50,LOX IMVI melanoma,559 nM
same,TGI,LOX IMVI melanoma,13400 nM
same,GI50,NCI-H460 lung,412 nM
same,TGI,NCI-H460 lung,16400 nM
same,GI50,DU-145 prostate,669 nM
same,TGI,DU-145 prostate,> 100000 nM
same,GI50,MCF7 breast,334 nM
same,TGI,MCF7 breast,> 100000 nM
same,GI50,COLO 205 colon,11700 nM
same,TGI,COLO 205 colon,> 100000 nM
same,GI50,HOP-62 NSCLC,729 nM
same,TGI,HOP-62 NSCLC,50800 nM
same,GI50,T-47D breast,1130 nM
same,TGI,T-47D breast,> 100000 nM
same,GI50,KM12 colon,1450 nM
same,TGI,KM12 colon,> 100000 nM
same,GI50,HCT-15 colon,408 nM
same,TGI,HCT-15 colon,> 100000 nM
same,GI50,UACC-62 melanoma,1180 nM
same,TGI,UACC-62 melanoma,6730 nM
same,GI50,HL-60(TB) leukemia,594 nM
same,TGI,HL-60(TB) leukemia,5090 nM
same,GI50,SNB-75 CNS,707 nM
same,TGI,SNB-75 CNS,> 62300 nM
same,GI50,SK-OV-3 ovarian,1280 nM
same,TGI,SK-OV-3 ovarian,18200 nM
same,GI50,SF-539 CNS,919 nM
same,TGI,SF-539 CNS,> 37100 nM
same,GI50,HT29 colon,3990 nM
same,TGI,HT29 colon,> 100000 nM
same,GI50,K-562 leukemia,468 nM
same,TGI,K-562 leukemia,> 100000 nM
same,GI50,SNB-19 CNS,522 nM
same,TGI,SNB-19 CNS,> 100000 nM
same,GI50,RXF 393 renal,2590 nM
same,TGI,RXF 393 renal,> 58200 nM
same,GI50,NCI-H522 lung,353 nM
same,TGI,NCI-H522 lung,> 100000 nM
same,GI50,MALME-3M melanoma,2020 nM
same,TGI,MALME-3M melanoma,> 100000 nM
same,GI50,SK-MEL-5 melanoma,638 nM
same,GI50,NCI-H23 lung,496 nM
same,TGI,NCI-H23 lung,> 61000 nM
same,GI50,EKVX NSCLC,1870 nM
same,TGI,EKVX NSCLC,> 100000 nM
same,GI50,OVCAR-8 ovarian,519 nM
same,TGI,OVCAR-8 ovarian,> 100000 nM
same,GI50,MDA-MB-435,571 nM
same,TGI,MDA-MB-435,> 100000 nM
same,GI50,SK-MEL-28 melanoma,2070 nM
same,TGI,SK-MEL-28 melanoma,> 100000 nM
same,GI50,IGROV1 ovarian,923 nM
same,TGI,IGROV1 ovarian,> 100000 nM
same,GI50,A498 renal,2600 nM
same,TGI,A498 renal,10100 nM
same,GI50,SN12C renal,392 nM
same,TGI,SN12C renal,> 100000 nM
same,GI50,RPMI-8226 leukemia,460 nM
same,TGI,RPMI-8226 leukemia,> 100000 nM
same,GI50,CCRF-CEM leukemia,563 nM
same,TGI,CCRF-CEM leukemia,> 100000 nM
same,GI50,TK-10 renal,3230 nM
same,TGI,TK-10 renal,> 100000 nM
same,GI50,MOLT-4 leukemia,707 nM
same,TGI,MOLT-4 leukemia,> 100000 nM
same,GI50,OVCAR-4 ovarian,3650 nM
same,TGI,OVCAR-4 ovarian,> 100000 nM
same,GI50,HCC-2998 colon,2900 nM
same,TGI,HCC-2998 colon,> 100000 nM
same,GI50,M14 melanoma,815 nM
same,GI50,SK-MEL-2 melanoma,566 nM
same,GI50,NCI/ADR-RES ovarian,309 nM
same,TGI,NCI/ADR-RES ovarian,> 34800 nM
same,GI50,OVCAR-5 ovarian,3830 nM
same,TGI,OVCAR-5 ovarian,> 100000 nM
same,GI50,SW-620 colon,624 nM
same,TGI,SW-620 colon,> 100000 nM
same,GI50,SF-295 CNS,1000 nM
same,TGI,SF-295 CNS,> 59600 nM
same,GI50,SR leukemia,409 nM
same,TGI,SR leukemia,> 100000 nM
same,GI50,NCI-H226 lung,3780 nM
same,TGI,NCI-H226 lung,> 100000 nM
same,GI50,CAKI-1 renal,1980 nM
same,TGI,CAKI-1 renal,> 92300 nM
same,GI50,U251 CNS,470 nM
same,TGI,U251 CNS,> 100000 nM
same,GI50,786-0 renal,3700 nM
same,TGI,786-0 renal,34000 nM
same,GI50,SF-268 CNS,782 nM
same,TGI,SF-268 CNS,> 100000 nM
same,GI50,UO-31 renal,458 nM
same,TGI,UO-31 renal,15300 nM
same,GI50,BT-549 breast,736 nM
same,TGI,BT-549 breast,> 49600 nM
same,GI50,HS 578T breast,522 nM
same,TGI,HS 578T breast,> 100000 nM
same,GI50,UACC-257 melanoma,2160 nM
same,TGI,UACC-257 melanoma,> 28700 nM
